Measured values: patent publication US20230183176A1, “PROCESS OF MAKING N,N'-DIACETYL-L-CYSTINE” (Conopco, Inc., d/b/a UNILEVER, priority 2020, published 2023)

Columns and labels:
[1] = solubility of NDAC compared with cystine; assay type: physicochemical
skin cells = assay: potentiating glutathione synthesis within skin cells; assay type: cell-based; details: compared with cystine
[2] = organic solvents such as alcohols, ethers, esters, ketones; cited from earlier work

Structure (SMILES) | solubility relative to cystine [1] | performance for potentiating glutathione synthesis within skin cells (skin cells) | solubility in organic solvents [2]
CC(=O)N[C@@H](CSSC[C@H](NC(C)=O)C(=O)O)C(=O)O [NDAC, N,N′-diacetyl-L-Cystine] | more soluble | comparable to that of cystine | –
N[C@@H](CSSC[C@H](N)C(=O)O)C(=O)O [cystine, L-Cystine] | – | – | practically insoluble
